In this experiment the target is MAP kinase-activated protein kinase 2 (Homo sapiens, UniProt P49137). As to the kind of experiment: Kinase reactions were started with the addition of 40 μL of MK-2 enzyme and monitored every 71 seconds for 30-240 minutes at λex360/λem485 in a Synergy2, Synergy4 or Synergy H4 plate reader from BioTek (Winooski, Vt.). […] Initial velocity (0 minutes to +30 minutes) from each reaction was estimated from the slope of a plot of relative fluorescence units vs time (minutes) and normalized to the no enzyme and no inhibitor control groups for % Inhibition. The resulting % Inhibition values were then plotted against inhibitor concentration to estimate IC50 from log[Inhibitor] vs Response, Variable Slope model in GraphPad Prism from GraphPad Software (San Diego, Calif.).

Where only a bound is given, the exact number is not on record here.

Chain of MAP kinase-activated protein kinase 2 (P49137 whole entry): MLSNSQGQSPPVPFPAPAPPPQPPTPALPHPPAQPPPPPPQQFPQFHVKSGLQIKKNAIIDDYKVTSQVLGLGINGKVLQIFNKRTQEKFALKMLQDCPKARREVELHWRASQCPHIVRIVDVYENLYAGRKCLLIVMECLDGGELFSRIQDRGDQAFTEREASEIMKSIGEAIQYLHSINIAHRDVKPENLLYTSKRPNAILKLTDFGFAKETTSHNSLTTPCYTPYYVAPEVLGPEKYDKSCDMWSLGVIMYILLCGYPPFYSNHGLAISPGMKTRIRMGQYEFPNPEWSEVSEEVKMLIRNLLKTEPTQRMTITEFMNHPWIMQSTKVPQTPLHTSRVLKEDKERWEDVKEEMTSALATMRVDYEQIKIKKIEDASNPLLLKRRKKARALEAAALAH

The EC50 is the concentration that produces a half-maximal response. For orientation: IC50 means the concentration needed to halve the response being measured. For `C=CC(=O)Nc1cc(NC(=O)c2ccc3sc4c(c3c2)NC[C@@H](C)NC4=O)ccc1C1CCN(C)CC1`, the EC50 was below 100 nM and the IC50 was below 100 nM. For `C=CC(=O)N1CCOc2ccc(-c3cc4c(cn3)CCc3c-4[nH]c4c3C(=O)NCC4)cc21`, the IC50 is below 100 nM. In the case of `C=CC(=O)Nc1cc(-c2cc3c(ccc4c5c([nH]c43)CCC5=O)cn2)ccc1C`, the EC50 was below 100 nM and the IC50 is below 100 nM.

The record behind these values is ChEMBL document CHEMBL5728686, “MK2 inhibitors and uses thereof” (2021).
